From PubChem BioAssay AID248 (DTP/NCI, 2004) come the findings set out here.

The assay relates to L1210 leukemia ip in BDF1 mice, survival T/C. The experiment in a line: NCI In Vivo Anticancer Drug Screen. Data for tumor model L1210 Leukemia (intraperitoneal) in B6D2F1 (BDF1) mice. As to conditions: endpoint: mean survival time, higher = longer survival. An outline of the steps:
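Antitumor effect is assessed in tumor-bearing animals. Survival in the compound arm is compared with a vehicle-dosed control arm and expressed as their quotient.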

Setting [1] is: dose: 100.0 mg/kg/injection, schedule: Q01DX009 (ip), vehicle: saline with Tween-80.
[2] abbreviates: dose: 100.0 mg/kg/injection, schedule: Q04DX002 (ip), vehicle: saline with Tween-80.
[3] abbreviates: dose: 200.0 mg/kg/injection, schedule: Q01DX009 (ip), vehicle: saline with Tween-80.
[4] abbreviates: dose: 100.0 mg/kg/injection, schedule: Q01DX001 (ip), vehicle: other.
The mark [5] stands for this setting: dose: 200.0 mg/kg/injection, schedule: Q01DX001 (ip), vehicle: other.
Where [6] appears, read: dose: 400.0 mg/kg/injection, schedule: Q01DX001 (ip), vehicle: other.
Setting [7] is: dose: 400.0 mg/kg/injection, schedule: Q01DX009 (ip), vehicle: saline with Tween-80.
Where [8] appears, read: dose: 100.0 mg/kg/injection, schedule: Q04DX003 (ip), vehicle: saline.
The mark [9] stands for this setting: dose: 200.0 mg/kg/injection, schedule: Q04DX003 (ip), vehicle: saline.
[10] abbreviates: dose: 400.0 mg/kg/injection, schedule: Q04DX003 (ip), vehicle: saline.
Setting [11] is: dose: 100.0 mg/kg/injection, schedule: Q01DX001 (ip), vehicle: Klucel (hydroxypropylcellulose) (HPC).
[12] abbreviates: dose: 100.0 mg/kg/injection, schedule: Q04DX003 (ip), vehicle: Klucel (hydroxypropylcellulose) (HPC).
Where [13] appears, read: dose: 200.0 mg/kg/injection, schedule: Q01DX001 (ip), vehicle: Klucel (hydroxypropylcellulose) (HPC).
[14] abbreviates: dose: 200.0 mg/kg/injection, schedule: Q04DX003 (ip), vehicle: Klucel (hydroxypropylcellulose) (HPC).
Where [15] appears, read: dose: 400.0 mg/kg/injection, schedule: Q04DX003 (ip), vehicle: Klucel (hydroxypropylcellulose) (HPC).

Toxic doses and inconclusive results are not listed.

For the molecule `CCOc1ccc(OC/C=C(\C)CCC=C(C)C)cc1`, the T/C was 103 % of control under setting [1]; 101 % of control under setting [2]; 92 % of control under setting [3]; 94 % of control (dose: 200.0 mg/kg/injection, schedule: Q04DX002 (ip), vehicle: saline with Tween-80); 94 % of control (dose: 400.0 mg/kg/injection, schedule: Q04DX002 (ip), vehicle: saline with Tween-80).
`O=S(=O)(O)c1cccc2cccc(N=Nc3ccc(O)cc3)c12`: the T/C reads like this: under setting [4], 94 % of control; under setting [5], 103 % of control; under setting [6], 94 % of control.
Regarding `CCOC1CC2(c3ccccc3)OC(=O)OC12c1ccccc1` (centres undefined), the T/C runs as follows: (dose: 25.0 mg/kg/injection, schedule: Q04DX002 (ip), vehicle: saline with Tween-80) 115 % of control; (dose: 50.0 mg/kg/injection, schedule: Q04DX002 (ip), vehicle: saline with Tween-80) 101 % of control; under setting [2], 115 % of control.
Turning to `ICCC(c1ccccc1)(c1ccccc1)c1ccccc1`, the T/C is, setting by setting: (dose: 50.0 mg/kg/injection, schedule: Q01DX001 (ip), vehicle: saline) 108 % of control; (dose: 100.0 mg/kg/injection, schedule: Q01DX001 (ip), vehicle: saline) 96 % of control; (dose: 200.0 mg/kg/injection, schedule: Q01DX001 (ip), vehicle: saline) 96 % of control; (dose: 400.0 mg/kg/injection, schedule: Q01DX001 (ip), vehicle: saline) 96 % of control.
In the case of `CCCCCCCCCCCC(=O)NC(=O)N1CCOCC1`, the T/C reads like this: (dose: 100.0 mg/kg/injection, schedule: Q01DX001 (ip), vehicle: saline with Tween-80) 101 % of control; under setting [1], 97 % of control; (dose: 200.0 mg/kg/injection, schedule: Q01DX001 (ip), vehicle: saline with Tween-80) 101 % of control; under setting [3], 98 % of control; (dose: 400.0 mg/kg/injection, schedule: Q01DX001 (ip), vehicle: saline with Tween-80) 94 % of control; under setting [7], 93 % of control.
Take `NNC(=O)c1cc2ccncc2c2sc3ccccc3c12`: the T/C is, setting by setting: under setting [8], 92 % of control; under setting [9], 88 % of control; under setting [10], 97 % of control.
With `O=C(CCCN1CCC(O)CC1)c1ccccc1`, the T/C reads like this: under setting [8], 90 % of control; under setting [9], 104 % of control.
As to `CC1=C(Br)C(=O)C(c2c(C)cc(C)c(Br)c2C)=C(Br)C1=O`, the T/C runs as follows: (dose: 50.0 mg/kg/injection, schedule: Q04DX003 (ip), vehicle: Klucel (hydroxypropylcellulose) (HPC)) 111 % of control; under setting [11], 89 % of control; under setting [12], 92 % of control; under setting [13], 87 % of control; under setting [14], 94 % of control.
For the molecule `CC(C)CCC(O)c1c[nH]c(=O)[nH]c1=O` (centres undefined), the T/C runs as follows: under setting [12], 105 % of control; under setting [14], 105 % of control; under setting [15], 94 % of control.
Take `O=[N+]([O-])c1ccc(N=Cc2ccccc2)cc1`: the T/C was 91 % of control under setting [12], 96 % of control under setting [14] and 98 % of control under setting [15].
Consider `CC1=CCS(=O)(=O)C1`, for which the T/C under setting [8] is 103 % of control and the T/C under setting [9] is 101 % of control.
Regarding `O=C(O)/C=C/C(=O)Nc1ccc([N+](=O)[O-])cc1`, the T/C runs as follows: under setting [1], 101 % of control; (dose: 100.0 mg/kg/injection, schedule: Q04DX003 (ip), vehicle: saline with Tween-80) 107 % of control; under setting [3], 102 % of control; (dose: 200.0 mg/kg/injection, schedule: Q04DX003 (ip), vehicle: saline with Tween-80) 101 % of control; under setting [7], 95 % of control; (dose: 400.0 mg/kg/injection, schedule: Q04DX003 (ip), vehicle: saline with Tween-80) 107 % of control.
`COC(=O)C1CCC2C3CCC4CC(O)CCC4(C)C3CCC12C` (centres undefined): the T/C runs as follows: under setting [11], 110 % of control; under setting [13], 100 % of control; (dose: 400.0 mg/kg/injection, schedule: Q01DX001 (ip), vehicle: Klucel (hydroxypropylcellulose) (HPC)) 95 % of control.
As to `CC(C)(C)c1ccc(C(c2ccc(C(C)(C)C)cc2)C(Cl)Cl)cc1`, the T/C was 113 % of control under setting [12], 96 % of control under setting [14] and 97 % of control under setting [15].
For the molecule `O=P1(NCCCl)OCCC(O)N1CCCl` (centres undefined), the T/C is 242 % of control (dose: 100.0 mg/kg/injection, schedule: Q01DX001 (ip), vehicle: DMSO); 284 % of control (dose: 200.0 mg/kg/injection, schedule: Q01DX001 (ip), vehicle: DMSO); 273 % of control (dose: 400.0 mg/kg/injection, schedule: Q01DX001 (ip), vehicle: DMSO).
Consider `COc1cc(O)c(C(=O)O)c(OC)c1`, for which the T/C (dose: 100.0 mg/kg/injection, schedule: Q01DX009 (ip), vehicle: other) was 103 % of control; the T/C under setting [8] was 104 % of control; the T/C (dose: 200.0 mg/kg/injection, schedule: Q01DX009 (ip), vehicle: other) is 103 % of control; the T/C under setting [9] is 102 % of control; the T/C (dose: 400.0 mg/kg/injection, schedule: Q01DX009 (ip), vehicle: other) is 101 % of control; the T/C under setting [10] is 98 % of control.
`CCCCCCOc1ccc(N=[N+]([O-])c2ccc(OCCCCCC)cc2)cc1`: the T/C runs as follows: (dose: 75.0 mg/kg/injection, schedule: Q01DX001 (ip), vehicle: other) 91 % of control; (dose: 150.0 mg/kg/injection, schedule: Q01DX001 (ip), vehicle: other) 91 % of control; (dose: 300.0 mg/kg/injection, schedule: Q01DX001 (ip), vehicle: other) 87 % of control.
On to `COc1ccc(C2=NNC(c3ccc(OC)cc3)=NN2)cc1`, for which the T/C is, setting by setting: under setting [4], 104 % of control; under setting [5], 96 % of control; under setting [6], 93 % of control.
Regarding `CCOC(=O)/C(C#N)=C/C(C)c1ccccc1` (centres undefined), the T/C was 108 % of control (dose: 100.0 mg/kg/injection, schedule: Q01DX009 (ip), vehicle: saline); 104 % of control (dose: 200.0 mg/kg/injection, schedule: Q01DX009 (ip), vehicle: saline); 95 % of control (dose: 400.0 mg/kg/injection, schedule: Q01DX009 (ip), vehicle: saline).
